Results published in patent US12285460B2, “Pharmaceutical compositions” (RHYTHM PHARMACEUTICALS, INC., priority 2013, dated 2025).
Bridge positions count the residues as written; N and C are the ends. Square brackets hold non-standard residues; d marks the D form. Peptide text beside a SMILES is read from it. dPhe(4-F) = N[C@H](Cc1ccc(F)cc1)C(=O)O; Pen = CC(C)(S)[C@H](N)C(=O)O; hCys = N[C@@H](CCS)C(=O)O

What was measured:
MC3R = target: T1, MC3R (Homo sapiens, UniProt P41968); test: cAMP assay (EC50), MC3R; type: cell-based; conditions: EC50(MC3R)/EC50(MC4R)
T1 construct: host or cells: CHO-K1 (ECL assay)
T1 sequence (P41968 whole entry): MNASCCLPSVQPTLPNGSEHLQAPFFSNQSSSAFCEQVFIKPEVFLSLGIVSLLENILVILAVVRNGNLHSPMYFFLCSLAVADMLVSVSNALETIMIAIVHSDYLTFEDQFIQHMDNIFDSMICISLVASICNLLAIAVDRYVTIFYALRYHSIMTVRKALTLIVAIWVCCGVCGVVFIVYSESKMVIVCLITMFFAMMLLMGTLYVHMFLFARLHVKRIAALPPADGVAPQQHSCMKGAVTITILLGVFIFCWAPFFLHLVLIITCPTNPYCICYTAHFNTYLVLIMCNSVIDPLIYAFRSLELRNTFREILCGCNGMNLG
Protocol: (§1) Stimulation of intracellular cyclic AMP (cAMP) levels by the peptides is determined in a dose dependent manner by an electrochemiluminescence (ECL) assay (Meso Scale Discovery, Gaithersburg, MD, USA; referred to hereinafter as “MSD”). Briefly, the CHO-K1 cells stably expressing the hMC receptor subtypes are suspended in RMPI 1640® assay buffer (RMPI 1640 buffer contains 0.5 mM IBMX, and 0.2% protein cocktail (MSD blocker A)). About 7,000 cells/well of the transgenic CHO-K1 cells stably expressing hMC receptor subtypes 1, 3, 4 or 5 are dispensed in 384-well Multi-Array plates (MSD) containing integrated carbon electrodes and coated with anti-cAMP antibody. Increasing concentrations of the test compounds are added and the cells are incubated for approximately 40 minutes at 37° C. A cell lysis buffer (HEPES-buffered saline solution with MgCl2 and Triton X-100® at pH 7.3) containing 0.2% protein cocktail and 2.5 nM TAG™ ruthenium-labeled cAMP (MSD) is added and the cells are incubated for approximately 90 minutes at room temperature. At the end of the second incubation period, the read buffer (Tris-buffered solution containing an ECL co-reactant and Triton X-100 at pH 7.8) is added and the cAMP levels in the cell lysates are immediately determined by ECL detection with a Sector Imager 6000 Reader® (MSD). Data are analyzed using a computer-assisted non-linear regression analysis (XL fit; IDBS) and reported as either an EC50 value.
(§2) Human MC4-R transfected cells are grown to confluence in 96 well plates (plating approximately 250,000 cells per well). The cells are treated in triplicate sets with 0.2 mM isobutylmethylxanthine (IBMX) and graded concentrations of the peptide or alternatively the peptide in the presence of 20 nM NDP-MSH. Cells similarly treated but with only 20 nM NDP-MSH serve as positive controls in a volume of 200 μL. A buffer blank serving as a negative control is also included. After incubation of one hour at 37° C., the cells are lysed by the addition of 50 μL of a cell lysis buffer. Total cAMP accumulated in 250 μL of this incubation medium is quantitated using a commercially available low pH cAMP assay kit (Amersham BioSciences) as per procedure specified by the kit supplier. […] The data for agonist is plotted and curve fitted to determine the EC50 value. A peptide showing accumulation in the same range as the negative control (buffer blank in the absence of alpha-MSH) is ineffective at the test concentration. A peptide showing attenuated accumulation is considered to be an antagonist if there is inhibition in cAMP when alpha-MSH is also present in the assay. Similar assay can be performed with hMC-1R, hMC-3R, and hMC-5R cells.
(§3) A chemiluminescence readout system that uses an enzyme fragment complementation (EFC) system with β-galactosidase (β-Gal) as the functional reporter system was used. This assay system for various melanocortin receptor systems is commercially available (cAMP Hunter GPCR assay system, Discoverx Corp, Fremont, CA). This assay utilizes the β-Gal enzyme that is split into two complementary portions; EA for Enzyme Acceptor and ED for Enzyme Donor. In the assay, the ED portion fused to cAMP is made to compete with cAMP generated by cells for binding to a cAMP-specific antibody. The EA is then added to form active β-Gal with any unbound ED-cAMP.
(§4) Briefly, 10000 cells per well are plated overnight and each well (cells incubated with 10 μl assay buffer) is then incubated with 4× serial concentration of the test compound in the cell assay buffer (5 μL) and cAMP antibody reagent (5 μL) for 30 min at 37° C. The cell lysis buffer (20 μL) containing ED-cAMP coupled enzyme fragment and the reporter substrate (Emerald II-Galacton Star, 5:1) is then added and incubated for 60 min at room temperature. Next, 20 μL of EA β-Gal fragment reagent is added.

MC1R = target: T2, MC1R (Homo sapiens, UniProt Q01726); test: cAMP assay (EC50), MC1R; type: cell-based; conditions: EC50(MC1R)/EC50(MC4R)
T2 construct: host or cells: CHO-K1 (ECL assay)
T2 sequence (Q01726 whole entry): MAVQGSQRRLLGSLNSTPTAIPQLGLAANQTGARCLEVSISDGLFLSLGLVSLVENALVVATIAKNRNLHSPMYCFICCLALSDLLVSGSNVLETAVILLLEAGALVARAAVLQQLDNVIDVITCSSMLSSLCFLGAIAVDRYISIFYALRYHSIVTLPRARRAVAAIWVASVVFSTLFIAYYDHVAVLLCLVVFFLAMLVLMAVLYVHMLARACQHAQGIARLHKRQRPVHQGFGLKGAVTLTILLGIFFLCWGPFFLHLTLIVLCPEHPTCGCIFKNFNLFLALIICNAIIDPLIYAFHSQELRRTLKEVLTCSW
Protocol: as §1, §2, §3, §4

MC5R = target: T3, MC5R (Homo sapiens, UniProt P33032); test: cAMP assay (EC50), MC5R; type: cell-based; conditions: for Ratios of EC50 values MC5/4: EC50(MC5R)/EC50(MC4R)
T3 construct: host or cells: CHO-K1 (ECL assay)
T3 sequence (P33032 whole entry): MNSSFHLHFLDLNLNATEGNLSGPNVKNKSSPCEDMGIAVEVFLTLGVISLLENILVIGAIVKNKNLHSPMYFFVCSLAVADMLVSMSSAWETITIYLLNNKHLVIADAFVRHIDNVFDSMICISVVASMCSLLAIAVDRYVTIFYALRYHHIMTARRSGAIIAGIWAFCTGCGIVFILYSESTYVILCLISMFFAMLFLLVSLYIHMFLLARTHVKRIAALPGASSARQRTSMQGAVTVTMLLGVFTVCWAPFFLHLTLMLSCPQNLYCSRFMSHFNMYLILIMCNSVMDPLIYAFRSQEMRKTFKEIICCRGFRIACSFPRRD
Protocol: Stimulation of intracellular cyclic AMP (cAMP) levels by the peptides is determined in a dose dependent manner by an electrochemiluminescence (ECL) assay (Meso Scale Discovery, Gaithersburg, MD, USA; referred to hereinafter as “MSD”). Briefly, the CHO-K1 cells stably expressing the hMC receptor subtypes are suspended in RMPI 1640® assay buffer (RMPI 1640 buffer contains 0.5 mM IBMX, and 0.2% protein cocktail (MSD blocker A)). About 7,000 cells/well of the transgenic CHO-K1 cells stably expressing hMC receptor subtypes 1, 3, 4 or 5 are dispensed in 384-well Multi-Array plates (MSD) containing integrated carbon electrodes and coated with anti-cAMP antibody. Increasing concentrations of the test compounds are added and the cells are incubated for approximately 40 minutes at 37° C. A cell lysis buffer (HEPES-buffered saline solution with MgCl2 and Triton X-100® at pH 7.3) containing 0.2% protein cocktail and 2.5 nM TAG™ ruthenium-labeled cAMP (MSD) is added and the cells are incubated for approximately 90 minutes at room temperature. At the end of the second incubation period, the read buffer (Tris-buffered solution containing an ECL co-reactant and Triton X-100 at pH 7.8) is added and the cAMP levels in the cell lysates are immediately determined by ECL detection with a Sector Imager 6000 Reader® (MSD). Data are analyzed using a computer-assisted non-linear regression analysis (XL fit; IDBS) and reported as either an EC50 value. […]
as §3, with “ED-cAMP. This active enzyme then converts a chemiluminescent substrate to generate an output signal that is recorded on a standard microplate reader.” for “ED-cAMP.”
as §4

[1] = Pharmacokinetics of formulations after single subcutaneous bolus in Cynomolgus monkeys; type: in vivo; conditions: cynomolgus monkey, plasma, sc, 0.5 mg/kg body weight
Protocol: A group of Cynomolgus monkeys (average body weight range of 3 to 7 kg) were randomized into a group of 6 for each formulation described above and for Formulation 3A. Each monkey in the cohort was subcutaneously administered in the scapular area with a single bolus dose of a formulation calculated at 0.5 mg/kg body weight. Blood samples were taken at various time points staring at 30 minutes post dosing to 36 or 48 hours. The plasma was harvested and peptide drug concentration assays using LC-MS/MS technique. The pharmacokinetic data is presented in Table 3 below, and the pharmacokinetic profile is set forth graphically in FIG. 1, FIG. 2, and FIG. 3.

| Structure (SMILES) | Ratios of EC50 values MC3/4 (MC3R) | Ratios of EC50 values MC1/4 (MC1R) | Ratios of EC50 values MC5/4 (MC5R) | Cmax [1] [µg/mL] | Tmax [1] [min] | EC50 (MC5R) [µM] |
| --- | --- | --- | --- | --- | --- | --- |
| CC(=O)N[C@@H](CCCNC(=N)N)C(=O)N[C@H]1CSSC[C@@H](C(N)=O)NC(=O)[C@H](Cc2c[nH]c3ccccc23)NC(=O)[C@H](CCCNC(=N)N)NC(=O)[C@@H](Cc2ccc(F)cc2)NC(=O)[C@@H]2CCCN2C(=O)[C@@H](C)NC1=O [Compound 14, Ac-Arg-cyclo[Cys-D-Ala-Pro-D-Phe(p-F)-Arg-Trp-Cys]-NH2] (Ac-RC[dA]P[dPhe(4-F)]RWC-NH2; disulfide 2-8) | >400 | 7 | 12 | – | – | – |
| CC(=O)N[C@@H](CCCNC(=N)N)C(=O)N[C@H]1CCSSC[C@@H](C(N)=O)NC(=O)[C@H](Cc2c[nH]c3ccccc23)NC(=O)[C@H](CCCNC(=N)N)NC(=O)[C@@H](Cc2ccccc2)NC(=O)[C@H](C)NC1=O [Compound 15, Ac-Arg-cyclo[hCys-Ala-D-Phe-Arg-Trp-Cys]-NH2] (Ac-R[hCys]A[dF]RWC-NH2; disulfide 2-7) | 3.8 | 15 | 161 | – | – | – |
| CC(=O)N[C@@H](CCCNC(=N)N)C(=O)N[C@H]1CCSSC[C@@H](C(N)=O)NC(=O)[C@H](Cc2c[nH]c3ccccc23)NC(=O)[C@H](CCCNC(=N)N)NC(=O)[C@@H](Cc2ccccc2)NC(=O)[C@@H](C)NC1=O [Compound 16, Ac-Arg-cyclo[hCys-D-Ala-D-Phe-Arg-Trp-Cys]-NH2] (Ac-R[hCys][dA][dF]RWC-NH2; disulfide 2-7) | 420 | 120 | >1338 | – | – | – |
| CC(=O)N[C@@H](CCCNC(=N)N)C(=O)N[C@H]1CCSSC(C)(C)[C@@H](C(N)=O)NC(=O)[C@H](Cc2c[nH]c3ccccc23)NC(=O)[C@H](CCCNC(=N)N)NC(=O)[C@@H](Cc2ccccc2)NC(=O)[C@@H](C)NC1=O [Compound 17, Ac-Arg-cyclo[hCys-D-Ala-D-Phe-Arg-Trp-Pen]-NH2] (Ac-R[hCys][dA][dF]RW[Pen]-NH2; disulfide 2-7) | 17 | 15 | 159 | – | – | – |
| CC(=O)N[C@@H](CCC(=O)O)C(=O)N[C@H]1CSSC[C@@H](C(N)=O)NC(=O)[C@H](Cc2c[nH]c3ccccc23)NC(=O)[C@H](CCCNC(=N)N)NC(=O)[C@@H](Cc2ccccc2)NC(=O)[C@H](Cc2c[nH]cn2)NC(=O)[C@H](C)NC1=O [Compound 22, Ac-Glu-cyclo[Cys-Ala-His-D-Phe-Arg-Trp-Cys]-NH2] (Ac-ECAH[dF]RWC-NH2; disulfide 2-8) | >20 | >3 | >2563 | – | – | – |
| CC(=O)N[C@@H](CCCNC(=N)N)C(=O)N[C@H]1CSSC[C@@H](C(N)=O)NC(=O)[C@H](Cc2c[nH]c3ccccc23)NC(=O)[C@H](CCCNC(=N)N)NC(=O)[C@@H](Cc2ccccc2)NC(=O)[C@H](Cc2c[nH]cn2)NC(=O)[C@@H](C)NC1=O [Peptide 1] | – | – | – | 1.1 | 30 | 1.6 |
